The text below walks through data of patent US20250115581A1, “SUBSTITUTED PIPERIDINES AS CK1A DEGRADERS” (Monte Rosa Therapeutics, Inc., priority 2022, published 2025).

Bounds are passed on as bounds.

Data set [1] deals with T1, CK1α (Homo sapiens, UniProt P48729+Q96SW2).
T1 construct: HEK293 clonal lines with CRISPR KI HiBiT tag on CSNK1A1; host or cells: HEK293 clonal line, CRISPR knock-in HiBiT at the CSNK1A1 locus, stably expressing LgBiT
The data set can be described thus: Western blot of CK1α levels in cereblon (CRBN) knock-out HEK293 cell line. Particulars: 0.1, 1, 10 μM, 24 hours. Format: cell-based. The protocol:
(§1) FIG. 1 depicts effects of compound 101 on CK1α levels in an HEK293 cell line in comparison to effects of compound 101 on CK1α levels in a cereblon (CRBN) knock-out HEK293 cell line.
(§2) HEK293 cell line is purchased from ATCC (CRL-1573). HEK293 CRBN knock out (k/o) cell line (B2) is generated internally using CRISPR/Cas9 method and clonally expanded. Cells are plated at 2×10^5 cells per well in 6-well tissue culture plates (VWR) in 2 ml of DMEM media (Gibco) containing 10% FBS (Gibco), and incubated for 16 hours at 37° C., 5% CO2. Compounds are added to final concentration of 0.1 μM, 1 μM, 10 μM (DMSO concentration is kept constant at 0.1%), following incubation at 37° C., 5% CO2 for additional 24 hours. Cell lysis is performed using RIPA buffer (Pierce) containing Halt™ Protease Inhibitor Cocktail (ThermoFisher Scientific). Lysates are boiled at 95° C. for 10 minutes and 12 μg of protein lysate per sample is resolved by SDS-PAGE using 12% gels (BioRad) and transferred to nitrocellulose membrane (BioRad). Membranes are blocked using LI-COR blocking buffer (LI-COR) at room temperature for 1 hour, followed by overnight incubation with rabbit anti-CK1α (Abcam ab206652), rabbit anti-CRBN (Sigma HPA045910) and mouse anti-α-tubulin (Sigma T9026) antibodies at 4° C. Secondary antibodies (LI-COR) are added for a hour at room temperature, followed by imaging with LI-COR imaging system Odyssey® CLx.
(A western blot detects proteins with antibodies after separation by electrophoresis.)

The subject of data set [2] is LS180. The data set can be described thus: Growth inhibition, CyQUANT Direct Cell Proliferation Assay, LS180. Format: cell-based. Conditions: Homo sapiens; LS180 cells, 120 to 168 hours. The protocol: SKCO1, LS180, and LS174T cell lines were purchased from ATCC. CW2 cell line was purchased from Riken. GP2D cell line was purchased from Sigma/ECACC. All cell lines were cultured in manufacturer's recommended media at 37° C., 5% CO2. Briefly, cells were suspended in 200 μL of media and seeded at 300 to 1,800 cells per well in tissue culture treated 96-well plates with black walls and clear bottom. Plates were incubated overnight and initial (TO) read was performed the following day using CyQUANT Direct Cell Proliferation Assay Kit (Thermo Fisher Scientific) according to manufacturer's protocol. All compounds were solubilized in DMSO and prepared at 3-fold serial dilution, using 9 points starting at 30 μM as highest concentration, administered to cells and incubated for 120 to 168 hours, at which point CyQUANT assay measurement was performed using Acumen Cellista instrument (Ex/Em 480/520 nm). Media-only wells were used as blank, and 0.3% DMSO was used as DMSO-treated cell control. Growth inhibition (percent response) was calculated using the following formula in Excel: “=if ([Compound treated Day N]>[Untreated Day 0, AVG], ([Compound treated Day N]− [Untreated Day 0, AVG])/([Untreated Day N]−[Untreated Day 0, AVG])*100, ([Compound Treated Day N]−[Untreated Day 0, AVG])/([Untreated Day 0, AVG])*100)”. GI50 is the response corresponding to the 50% of untreated control.
GI50 data are reported in Tables 4a, 4b, 4c, 4d, and 4e for compounds in Table 1. In Tables 4a, 4b, 4c, 4d, and 4e below, According to the code, A represents a GI50 value of ≤0.1 μM, B represents a GI50 value >0.1 μM and ≤1 μM, C represents an GI50 value >1 μM.

Data set [3] deals with T1, CK1α. The data set can be described thus: CK1α NanoBit Assay (HiBiT-tagged CSNK1A1 in HEK293 cells, luminescence). Format: cell-based. Conditions: 24 h. Summed up: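 HEK293 with endogenous HiBiT-tagged CSNK1A1 and stable LgBiT, live-cell Endurazine substrate; compound added at 10 or 30 μM final top concentration after 16 h plating, then 24 h at 37 °C. Luminescence normalised to plate controls; DC50 by 3-parameter logistic fit, hill slope 1.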

The target of data set [4] is T1, CK1α. The data set can be described thus: Western blot of CK1α levels in HEK293 cell line. The data set is classed as cell-based. Particulars: cereblon present, 0.1, 1, 10 μM, 24 hours. How it is done:
as §1, §2

A short description of data set [5]: Mouse oral PK at 10 mg/kg. Format: in vivo, Male BALB/c mice. Conditions: male, BALB/c, plasma. The protocol:
Male BALB/c mice were fasted overnight and administered a discrete, oral (PO) dose of Compound 107 or Compound 125 at 10 mg/kg.
Blood samples were collected serially from three animals/time-point following PO administration of the test compounds to the mice and placed in tubes containing K2EDTA. The blood samples were centrifuged, and the aliquots of the resulting plasma stored frozen at −60 to −90° C.
The plasma samples were analyzed by LC-MS/MS to determine concentrations of the test compounds. The in-life portion of the study and the bioanalysis of plasma samples was conducted at Wuxi (China).
The pharmacokinetic parameters for the tested compounds were calculated by non-compartmental analysis using Phoenix WinNonlin software.

T1 sequence (P48729 whole entry): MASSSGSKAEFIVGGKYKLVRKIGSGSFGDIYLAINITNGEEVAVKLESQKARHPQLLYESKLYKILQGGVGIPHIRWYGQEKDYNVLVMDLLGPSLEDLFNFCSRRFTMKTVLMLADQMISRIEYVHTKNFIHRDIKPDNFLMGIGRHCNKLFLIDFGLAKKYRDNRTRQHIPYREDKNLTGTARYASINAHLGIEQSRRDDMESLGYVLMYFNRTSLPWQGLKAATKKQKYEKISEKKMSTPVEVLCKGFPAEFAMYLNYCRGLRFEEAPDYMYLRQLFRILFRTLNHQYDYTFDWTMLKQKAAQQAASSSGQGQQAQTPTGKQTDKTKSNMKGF
T1 sequence (Q96SW2 whole entry): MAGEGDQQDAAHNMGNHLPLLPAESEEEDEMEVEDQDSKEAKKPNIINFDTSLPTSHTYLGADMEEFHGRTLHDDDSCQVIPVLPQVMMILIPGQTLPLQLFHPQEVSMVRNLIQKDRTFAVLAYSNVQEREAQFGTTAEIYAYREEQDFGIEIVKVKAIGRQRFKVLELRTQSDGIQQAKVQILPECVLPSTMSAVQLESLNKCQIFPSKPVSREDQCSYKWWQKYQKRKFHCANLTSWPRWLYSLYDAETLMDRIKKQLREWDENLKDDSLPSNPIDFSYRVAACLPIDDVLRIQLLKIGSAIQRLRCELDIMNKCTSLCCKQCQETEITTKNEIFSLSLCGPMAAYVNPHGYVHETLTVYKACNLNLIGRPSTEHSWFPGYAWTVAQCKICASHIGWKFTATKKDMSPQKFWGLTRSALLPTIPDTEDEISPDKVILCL
T1 sequence (Q16531 whole entry partner): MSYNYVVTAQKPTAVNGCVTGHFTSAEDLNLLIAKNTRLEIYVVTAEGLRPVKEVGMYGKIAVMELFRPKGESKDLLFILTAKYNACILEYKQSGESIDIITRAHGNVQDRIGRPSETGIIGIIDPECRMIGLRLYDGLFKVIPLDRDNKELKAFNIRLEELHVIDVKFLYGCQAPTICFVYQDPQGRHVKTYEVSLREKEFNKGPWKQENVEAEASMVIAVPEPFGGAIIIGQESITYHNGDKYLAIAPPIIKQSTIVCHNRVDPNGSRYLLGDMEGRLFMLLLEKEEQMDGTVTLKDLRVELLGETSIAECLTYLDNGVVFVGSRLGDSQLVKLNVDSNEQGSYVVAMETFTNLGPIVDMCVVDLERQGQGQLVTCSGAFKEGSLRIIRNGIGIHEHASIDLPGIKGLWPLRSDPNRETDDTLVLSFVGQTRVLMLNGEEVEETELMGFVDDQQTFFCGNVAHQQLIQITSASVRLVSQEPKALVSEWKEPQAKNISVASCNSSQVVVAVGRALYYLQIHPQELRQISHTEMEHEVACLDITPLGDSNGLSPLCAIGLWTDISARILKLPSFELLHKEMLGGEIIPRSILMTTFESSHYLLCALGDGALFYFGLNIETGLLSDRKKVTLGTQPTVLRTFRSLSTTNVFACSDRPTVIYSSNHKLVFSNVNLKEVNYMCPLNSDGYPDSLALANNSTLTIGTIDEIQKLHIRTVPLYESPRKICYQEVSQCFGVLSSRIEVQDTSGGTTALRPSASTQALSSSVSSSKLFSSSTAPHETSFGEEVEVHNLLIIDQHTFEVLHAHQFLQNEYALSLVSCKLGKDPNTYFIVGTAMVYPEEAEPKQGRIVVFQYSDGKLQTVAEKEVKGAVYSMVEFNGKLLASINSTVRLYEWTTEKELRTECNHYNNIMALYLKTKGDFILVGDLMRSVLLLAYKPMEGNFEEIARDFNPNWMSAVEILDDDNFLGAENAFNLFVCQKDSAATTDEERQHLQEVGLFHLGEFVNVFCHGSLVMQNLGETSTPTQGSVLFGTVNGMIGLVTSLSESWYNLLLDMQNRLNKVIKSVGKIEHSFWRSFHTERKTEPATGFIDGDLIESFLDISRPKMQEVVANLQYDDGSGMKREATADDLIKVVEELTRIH

The GI50 is the concentration at which growth is held to half of that of the control. Regarding `O=C1CCC(N2Cc3cc(N4CCN(c5ccccc5)C4=O)ccc3C2=O)C(=O)N1` (stereo not shown) [Compound 101, 3-(1-oxo-5-(2-oxo-3-phenylimidazolidin-1-yl)isoindolin-2-yl)piperidine-2,6-dione], the “effect on CK1α levels (Western blot, FIG. 1)” value is reported as “no effect on CK1α levels” in data set [1] and “decreases CK1α levels” in data set [4]. This molecule showed a GI50 in data set [2] of more than 1000 nM. The molecule further displayed a DC50 in data set [3] not above 0.1 µM.

In general, Tmax refers to the time from dosing to the highest level. Usually AUC stands for concentration integrated over time. What is called AUC(0-t) is exposure summed from dosing to a finite time, without extrapolation to infinity. The low end stands for less exposure, the high end for more exposure. Broadly, the Cmax is the highest concentration seen after dosing. A word on the half-life: it is the time needed for the level to fall by half in the phase considered. Read a low half-life as fast loss. `C[C@@H]1CN(c2ccc3c(c2)CN(C2CCC(=O)NC2=O)C3=O)C(=O)N1c1ccccc1` (stereo partly drawn) [Compound 107, 3-(5-((R)-4-methyl-2-oxo-3-phenylimidazolidin-1-yl)-1-oxoisoindolin-2-yl)piperidine-2,6-dione] came in with a DC50 in data set [3] not above 0.1 µM. The Tmax in data set [5] came out at 1 h. Further, in data set [5] (Mean ± SD), the exposure (AUC) is 5880 ± 1600 ng·h/mL, the AUC(0-t) is 5590 ± 1830 ng·h/mL, the Cmax was found to be 1520 ± 262 ng/mL and the half-life was 2.53 ± 0.37 h.

In data set [2], `C[C@@H]1CN(c2ccc3c(c2)CN(C2CCC(=O)NC2=O)C3=O)C(=O)N1c1ccc(C2CC2)cc1` (stereo partly drawn) [Compound 125, 3-(5-((R)-3-(4-cyclopropylphenyl)-4-methyl-2-oxoimidazolidin-1-yl)-1-oxoisoindolin-2-yl)piperidine-2,6-dione] gave a GI50 of 100 to 1000 nM. In data set [3], this molecule registered a DC50 not above 0.1 µM. For the same molecule, the Tmax in data set [5] came to 1 h. In data set [5] (Mean ± SD), this molecule came in with an exposure (AUC) of 1860 ± 495 ng·h/mL, an AUC(0-t) of 1790 ± 504 ng·h/mL and a Cmax of 717 ± 167 ng/mL.
